Source: patent US10188633B2, “Identification of small molecules that facilitate therapeutic exon skipping” (The Regents of the University of California, priority 2011, dated 2019)
Where a name gives a salt, the structure may show the parent alone.

Tests used:
DMD exon 51 = DMD exon 51 skipping in reprogrammed DMD patient fibroblasts fused to myotubes (GM05017, iDRM05017) with exon 51 AO; format: cell-based, human; settings: compound added 24 h after AO for two days; nested RT-PCR exons 43-52
Method: (A) Differentiated primary mouse myotubes were transfected either with 100 nM 2′-O-methyl M23D, which targets exon 23 splice donor region or mock transfected for 24 hours after which the transfection reagent was removed, and myotubes were treated with different concentrations of Dantrolene for 48 hours. Nested RT-PCR was performed on cDNA between exons 20-26, as previously described. The 901 bp band is the full-length mRNA product, the 688 bp mRNA product is a single skip of exon 23, and the 550 bp mRNA product is a double skip of exons 22 and 23. (B) Mouse Dmd exon 23-skipped transcript levels were quantified using a taqman assay with primer-probe sets spanning the splice junction created by an exon 23 skip (22-24 join) relative to primers amplifying the splice junction of exons 22 and 23 (representing the full length mRNA), as previously described. […] Error bars represent standard deviation of qRT-PCR triplicates. (C) Patient derived fibroblasts with exon 45-50 deletion (confirmed by microarray, see FIG. 6) were immortalized with lentiviral hTERT and transduced with inducible lentiviral MyoD [26]. Cells were grown to confluence, induced for MyoD activity, and fused for 10 days in low serum differentiation media. On Day 7, h51AON [5′ […] 3′] (SEQ ID NO:2) (same sequence as Pro051) within human exon 51 was added at concentrations indicated. Twenty-four hours later Dantrolene or vehicle was added. Cells were harvested 2 days later and total RNA isolated. RT-PCR amplified a fragment of cDNA from exons 42-53 which was followed by a nested PCR to generate a fragment spanning exons 43-52. The 540 bp product is the full length DMD mRNA species and the 307 bp product indicates the exon 51 skip isoform. Quantitation was performed using the Agilent Bioanalyzer and represented as the skip/full-length mRNA ratio.
Patient fibroblasts with a DMD exon 45-50 deletion were immortalized and transduced with a lenti-viral vector expressing inducible MyoD to create iDRMs (inducibly directly reprogrammable myotubes, specifically iDRM05017s). iDRM05017s were induced for MyoD activity and then cultured for 10 days in fusion media. On Day 7, AO was added for twenty-four hours then removed and Piperacetazine, Trifluoperazine Dihydrochloride, Fluphenazine Dihydrochloride or vehicle (Dimethyl sulfoxide; DMSO) were added in fresh media. After two days total RNA was harvested, cDNA reverse transcribed with a DMD specific primer in exon 54, and exon 51 skipping was detected by nested RT-PCR spanning exons 43-52. Quantitation of exon 51 skipping was performed using the Agilent Bioanalyzer and is represented as the proportion of exon 51 skipping. Error bars represent the standard deviation (SD) of 3 independent wells.
Patient fibroblasts were transduced with HTERT and an inducible MyoD vector [26]. […] Exon 51 skipping activity was assessed in the context of transfecting an exon 51 2′-O-methyl AO with equivalent sequence to Pro051 seven days after fusion. This AO is directed at an exonic splicing enhancer (ESE) sequence within exon 51. The AO was removed prior to addition of dantrolene and cultures were harvested two days later. A nested RT-PCR was performed between DMD exons 43-52 and levels of exon 51 skipping were determined by quantitating capillary electrophoresis separated fragments representing skipped and unskipped DMD mRNA.

exon skipping = experiment: Counter screens, 16 point titrations and mdx mouse myotubes (validation of lead hits); format: cell-based
Source text: The cell line, which was adapted to allow the screening of thousands of compounds in multiple replicates, was obtained from Dr. Qi Lu. […]

[1] = tested on: human DMD exon 50 GFP based reporter; experiment: BioMol high throughput screen in Ex50-GFP reporter C2C12 myoblasts, with or without AON6; format: cell-based, mouse; settings: compound 10 uM; for Average Fluorescence (n = 3): average of 3 replicate plates
Source text: Small molecule libraries were screened for exon skipping promoting activity in C2C12 myoblasts expressing a human DMD exon 50 GFP based reporter. […] In the reporter cells, successful skipping of DMD exon 50 creates in-frame GFP expression. Number of cells that were fluorescing was quantified using a high content cell imager in 384 well plate format. Fluorescence was normalized by subtracting the average fluorescence value of the carrier (DMSO) controls. Fluorescence readouts are plotted for the BioMol library screen both with (+AO) and without (−AO) from Source Plate 1 (containing the Orphan Ligand, Ion Channel, Enzyme Inhibitor, and Endocannabanoid libraries, n=300). Each point for the DMSO controls, all compounds, and the Top 5% from Source Plate 1 (n=15) represents the average normalized fluorescence of 6 replicates in the −AO screen and 3 replicates in the +AO screen. […] Individual points for dantrolene are plotted with the bold horizontal line indicating the median. The short horizontal lines interspersed among the data points indicate 1, 2, and 3 standard deviations away from the DMSO treatment mean fluorescence.
In contrast to prior screens aimed at identifying small molecules which impact exon skipping, our screen is unique at least because it relies on robust quantitation of a skipping reporter in the context of a muscle lineage cell in the presence and absence of suboptimal AO. These screens were performed using a mouse muscle cell line (C2C12) expressing a human DMD exon 50 GFP based reporter selected to minimize experimental variation and sensitivity in the context of an automated and quantitative fluorescent scanning system.
AO was added prior to small molecule incubation in an effort to identify molecules that facilitate AO skipping rather than AO delivery. The fluorescence induced by each compound was normalized to a vehicle controls per plate to correct for plate to plate variability. Fluorescence was averaged across replicate plates (n=6 without AO screen, n=3 with AO screen). Compounds were rank ordered based on average intensity of fluorescence and difference between the without AO and with AO screen (FIG. 1 and Table 2).
A stable clone was generated from C2C12 cells transfected with a human exon 50 DMD GFP reporter (ex50GFP) that has been previously described. Ex50GFP reporter myoblasts were seeded into uncoated 384 well plates and were incubated for 4 hours either with or without 300 nM of 2′-O-methyl phosphorothioate AON6 [5′[…] 3′ (SEQ ID NO:1)] targeting the human exon 50 splice donor site. Cells were transfected with AON6 using the FUGENE (Roche) transfection reagent per manufacturer's instructions. Following AON6 incubation, each component of the BioMol library (n=503) was screened at 10 uM concentration with a final concentration of the DMSO carrier being 1%. Forty-eight hours later fluorescence was measured using the MicroXpress high content imager and analyzed using MetaXpress. Immediately preceding imaging, DNA was stained with Hoescht for 30 min. The BioMol screen without AO (−AO) was performed in 6 replicates, and the with AO (+AO) screen was performed in 3 replicates. For the screen analysis raw fluorescence values were normalized to carrier controls present on each plate by subtracting the values. Negative fluorescence values were set to 0. The data from each compound were averaged from all replicates. For secondary screening by 12 or 16 point dose response, Ex50GFP myoblasts or C2C12 cells without the reporter were seeded on uncoated 384 well plates. A sub-optimal dose of AON6 targeting DMD exon 50 was added for 4 hours.

[2] = With AON6 screen, 48 h, fluorescence normalized by subtracting DMSO carrier controls
[3] = With AON6 screen, 48 h, normalized to DMSO carrier controls
[4] = Without AON6 screen, 48 h, normalized to DMSO carrier controls

In the case of `O=C(O)[C@@H]1[C@H]2C[C@H]3c4[nH]c5ccccc5c4CCN3C[C@@H]2CC[C@@H]1O` [Yohimbinic acid], the “AO directed DMD exon 51 skipping” value (DMD exon 51) was “enhance AO directed DMD exon 51 skipping”.

In the case of `COC(=O)[C@H]1[C@H]2C[C@@H]3c4[nH]c5cc(OC)ccc5c4CCN3C[C@H]2C[C@@H](OC(=O)c2cc(OC)c(OC)c(OC)c2)[C@@H]1OC` [Reserpine], the “efficacy in counter screen and on mdx mouse myotubes” value (“efficacy” below) (exon skipping) was “showing efficacy in counter screen and on mdx mouse myotubes”.

Ryanodine was tested, and the “Fluorescence Plate 1” value [1, 2] was 7.93, the “Fluorescence Plate 2” value [1, 3] was 28.86 and the “Fluorescence Plate 3” value [1, 3] was 13.31. The “Average Fluorescence (n = 3)” value ([1]; With AON6 screen) was 16.70 and the “AO directed DMD exon 51 skipping” value (DMD exon 51) was “enhance AO directed DMD exon 51 skipping”.

`O=c1[nH]c2ccccc2n1C1CCN(CCCC(c2ccc(F)cc2)c2ccc(F)cc2)CC1` [PIMOZIDE] was tested, and the “efficacy” value (exon skipping) was “showing efficacy in counter screen and on mdx mouse myotubes”.

For `O=C(Nc1ccc([N+](=O)[O-])cc1Cl)c1cc(Cl)ccc1O` [Niclosamide], the “efficacy” value (exon skipping) was “showing efficacy in counter screen and on mdx mouse myotubes”.

`CN1CCN(CCCN2c3ccccc3Sc3ccc(C(F)(F)F)cc32)CC1` [Trifluoperazine dihydrochloride] was tested, and the “AO directed DMD exon 51 skipping” value (DMD exon 51) was “enhance AO directed DMD exon 51 skipping”.

For `CCCCN(CCCC)CCC(O)c1cc2c(Cl)cc(Cl)cc2c2cc(C(F)(F)F)ccc12.Cl` (stereo not drawn) [Halofantrine hydrochloride], the “efficacy” value (exon skipping) was “showing efficacy in counter screen and on mdx mouse myotubes”.

In the case of `Cc1c2ccncc2c(C)c2c1[nH]c1ccccc12` [Ellipticine], the “efficacy” value (exon skipping) was “showing efficacy in counter screen and on mdx mouse myotubes”.

For `COc1ccc2c(c1)CN(C)CCS2` [RyCal S107], the “AO directed DMD exon 51 skipping” value (DMD exon 51) was “enhance AO directed DMD exon 51 skipping”.

`CCOC(=O)Oc1c(OC)cc(C(=O)O[C@@H]2C[C@@H]3CN4CCc5c([nH]c6cc(OC)ccc56)[C@H]4C[C@@H]3[C@H](C(=O)OC)[C@H]2OC)cc1OC` [Syrosingopine] was tested, and the “efficacy” value (exon skipping) was “showing efficacy in counter screen and on mdx mouse myotubes”.

In the case of `OCCN1CCN(CCCN2c3ccccc3Sc3ccc(C(F)(F)F)cc32)CC1` [Fluphenazine dihydrochloride], the “AO directed DMD exon 51 skipping” value (DMD exon 51) was “enhance AO directed DMD exon 51 skipping”.

In the case of `CC1=CC(=O)c2ccccc2C1=O` [Menadione], the “AO directed DMD exon 51 skipping” value (DMD exon 51) was “enhances AO directed DMD exon 51 skipping”.

In the case of `O=Cc1c2c(cc3c1=Nc1ccccc1-3)=Nc1ccccc1-2` [6-FORMYLINDOLO [3,2-b] CARBAZOLE], the “Fluorescence Plate 1” value [1, 2] was 30.05, the “Fluorescence Plate 2” value [1, 3] was 30.08 and the “Fluorescence Plate 3” value [1, 3] was 32.59. The “Average Fluorescence (n = 3)” value ([1]; With AON6 screen) was 30.90.

For `Cn1cc(C2=C(c3cn(CCCSC(=N)N)c4ccccc34)C(=O)NC2=O)c2ccccc21` [Ro 31-8220], the “Fluorescence Plate 1” value [1, 4] was 17.56, the “Fluorescence Plate 2” value [1, 4] was 50.61 and the “Fluorescence Plate 3” value [1, 4] was 46.79. The “Fluorescence Plate 4” value [1, 4] was 38.49, the “Fluorescence Plate 5” value [1, 4] was 31.21 and the “Fluorescence Plate 6” value [1, 4] was 34.94. For the same molecule, the “Average Fluorescence (n = 6)” value ([1]; Without AON6 screen, average of 6 replicate plates) was 36.60.

`CC(=O)c1ccc2c(c1)N(CCCN1CCC(CCO)CC1)c1ccccc1S2` [piperacetazine] was tested, and the “AO directed DMD exon 51 skipping” value (DMD exon 51) was “enhance AO directed DMD exon 51 skipping”.

For `CC(N/C(=N\C#N)Nc1ccncc1)C(C)(C)C` (stereo not drawn), the “Fluorescence Plate 1” value [1, 2] was 15.64, the “Fluorescence Plate 2” value [1, 3] was 27.20 and the “Fluorescence Plate 3” value [1, 3] was 11.56. For the same molecule, the “Average Fluorescence (n = 3)” value ([1]; With AON6 screen) was 18.13.

With `COC(=O)[C@H]1[C@H]2C[C@H]3c4[nH]c5ccccc5c4CCN3C[C@H]2CC[C@@H]1O` [rauwolscine hydrochloride] the “AO directed DMD exon 51 skipping” value (DMD exon 51) was “enhance AO directed DMD exon 51 skipping”.
